# “And” between values parts separate entries of the source, which are not always exact repeats. Equal entries are not always repeated.
# System: 188146-221-R-J1-PDC complex spheroid viability
# Experiment: Anticancer human tumor 188146-221-R-J1-PDC patient-derived colon adenocarcinoma cell line growth inhibition [POLQ]
# Settings: for viability, T/C: stronger effect = lower value
# Method: Multicellular complex tumor spheroid response to Polymerase (POL) inhibitors (novobiocin, ART-558, RP6685) in combination with a variety of drugs and investigational agents in selected tumor cell lines
# The POL inhibitors (novobiocin, ART-558, and RP6685) were evaluated both individually and in combination with standard of care and investigational anticancer small molecules within a complex spheroid model of solid tumors. . Complex spheroids include a stromal component modeled by human endothelial cells (HUVEC) and fibroblasts modeled by human mesenchymal stem cells (MSCs). The concentration ranges selected for each drug and investigational agent were based upon clinically achievable concentrations if the clinical Cmax of the agent was known.
# Compounds. The drugs and investigational agents: novobiocin (NSC847541), ART-558 (NSC835418), RP-6685 (NSC848927), peposertib (NSC802822), ceralasertib (NSC780249), elimusertib (NSC800525), camonsertib (NSC841442), AZD-1390 (NSC803789), olaparib (NSC753686), talazoparib (NSC767125), rucaparib (NSC756644), sotorasib (NSC818433), MRTX-1133 (NSC836407), SN-38 (NSC673596), topotecan (NSC609699), epotoside (NSC141540), doxorubicin (NSC123127), gemcitabine (NSC613327), 5-fluorouracil (NSC19893), paclitaxel (NSC125973), vemurafenib (NSC761431), MSA-2 (NSC828583), SN-011 (NSC837082), adavosertib (NSC754352), prexasertib (NSC758257), carboplatin (NSC241240) and oxaliplatin (NSC266046), were obtained from the National Cancer Institute (NCI) Developmental Therapeutics Program Chemical Repository (21). The FDA-approved anticancer drug set is available from the Developmental Therapeutics Program at https://dtp.cancer.gov/organization/dscb/obtaining/. […] The stock solutions were prepared in dimethyl sulfoxide (DMSO, Sigma-Aldrich, St. Louis, MO, cat. D2650), except for the platinum compounds which were prepared in saline (Quality Biological, Gaithersburg, MD, cat. 114-055-101), at 800-fold the tested concentration and stored at -70 degrees C prior to their use. All drugs and investigational agents were tested over a range starting from a high concentration at or near the clinical Cmax and decreasing in half-log increments. If the clinical Cmax for an agent had not been determined, the highest concentration tested was 10 microM, except for SN-38, which was tested at a high concentration of 1 microM.
# Cell Culture. All cells were maintained in an incubator at 37 degrees C and 5% CO2 with 95% humidity. The PDC lines were cultured according to standard operating procedures established by the NCI PDMR (https://pdmr.cancer.gov). Table 3 of the manuscript, lists the cell lines along with the number of the three cell types plated to form the mct-spheroids and media for tumor cell growth. After thawing, all PDC lines, except 997537-175-T-J1-PDC and 415267-285-R-J2-PDC, were cultured in Matrigel-coated flasks prepared with a working solution of 1X Ham's F-12 nutrient mix, without supplementation (Thermo Fisher Scientific, cat. 11765054), 100 U/mL penicillin-streptomycin (Thermo Fisher Scientific, cat. 15140122), and 2.5% Matrigel (Corning Inc., Corning, NY, cat. 354248) for the first three passages. The two PDC lines 997537-175-T-J1-PDC and 415267-285-R-J2-PDC were cultured on uncoated flasks. The 857933-349-R-J2-PDC line was cultured in 6C/Colon 1B media containing advanced DMEM/F-12 (Thermo Fisher Scientific, cat. 12634028), 10 mM HEPES (Thermo Fisher Scientific, cat. 15630080), 1X GlutaMAX supplement (Thermo Fisher Scientific, cat. 35050061), 0.1 mg/mL primocin (InvivoGen, San Diego, CA, cat. ant-pm-2), 10% defined fetal bovine serum, heat inactivated (HyClone Laboratories Inc., Logan, UT, cat. SH30070.03HI), 50% L-WRN conditioned media (ATCC, cat. CRL-3276), 1.25 mM N-Acetyl-L-cysteine (Sigma-Aldrich, cat. A9165), 10 mM nicotinamide (Sigma-Aldrich, cat. N0636), 1X B-27 supplement (Thermo Fisher Scientific, cat. 17504044), 1X N-2 supplement (Thermo Fisher Scientific, cat. […]
# [1] = curve of first compound, second compound 0.0316 µM
# [2] = curve of first compound, second compound 0.1 µM
# [3] = curve of first compound, second compound 0.316 µM
# [4] = curve of first compound, second compound 1 µM
# [5] = curve of first compound, second compound 3.16 µM
# [6] = curve of first compound, second compound 10 µM
# [7] = second compound 0.0316 µM, first compound 0.0316 µM
# [8] = second compound 0.0316 µM, first compound 0.1 µM
# [9] = second compound 0.0316 µM, first compound 0.316 µM
# [10] = second compound 0.0316 µM, first compound 1 µM
# [11] = second compound 0.1 µM, first compound 0.0316 µM
# [12] = second compound 0.1 µM, first compound 0.1 µM
# [13] = second compound 0.1 µM, first compound 0.316 µM
# [14] = second compound 0.1 µM, first compound 1 µM
# [15] = second compound 0.316 µM, first compound 0.0316 µM
# [16] = second compound 0.316 µM, first compound 0.1 µM
# [17] = second compound 0.316 µM, first compound 0.316 µM
# [18] = second compound 0.316 µM, first compound 1 µM
# [19] = second compound 1 µM, first compound 0.0316 µM
# [20] = second compound 1 µM, first compound 0.1 µM
# [21] = second compound 1 µM, first compound 0.316 µM
# [22] = second compound 1 µM, first compound 1 µM
# [23] = second compound 3.16 µM, first compound 0.0316 µM
# [24] = second compound 3.16 µM, first compound 0.1 µM
# [25] = second compound 3.16 µM, first compound 0.316 µM
# [26] = second compound 3.16 µM, first compound 1 µM
# [27] = second compound 10 µM, first compound 0.0316 µM
# [28] = second compound 10 µM, first compound 0.1 µM
# [29] = second compound 10 µM, first compound 0.316 µM
# [30] = second compound 10 µM, first compound 1 µM
# 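Further: spheroids exposed to compounds for seven days.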
# 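Wherever viability, T/C is given: 100% = DMSO vehicle control viability.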
smiles,measurement,setting,value
CCc1c2c(nc3ccc(O)cc13)-c1cc3c(c(=O)n1C2)COC(=O)[C@]3(O)CC + Cc1cccc(N(C)C(=O)C2C(O)CCN2c2nc(C)cc(C(F)(F)F)c2C#N)c1,IC50,[1],18.7 nM
same,IC50,[2],24.7 nM
same,IC50,[3],24.3 nM
same,IC50,[4],23.8 nM
same,IC50,[5],22.1 nM
same,IC50,[6],16.8 nM
same,"viability, T/C","second compound 0.0316 µM, first compound 0.00316 µM",106%
same,"viability, T/C","second compound 0.0316 µM, first compound 0.01 µM",64.3%
same,"viability, T/C",[7],39.6%
same,"viability, T/C",[8],17.9%
same,"viability, T/C",[9],11.2%
same,"viability, T/C",[10],6.74%
same,"viability, T/C","second compound 0.1 µM, first compound 0.00316 µM",102%
same,"viability, T/C","second compound 0.1 µM, first compound 0.01 µM",81.4%
same,"viability, T/C",[11],39.9%
same,"viability, T/C",[12],19.9%
same,"viability, T/C",[13],10.1%
same,"viability, T/C",[14],8.21%
same,"viability, T/C","second compound 0.316 µM, first compound 0.00316 µM",99.1%
same,"viability, T/C","second compound 0.316 µM, first compound 0.01 µM",87.7%
same,"viability, T/C",[15],38.2%
same,"viability, T/C",[16],15.9%
same,"viability, T/C",[17],11.5%
same,"viability, T/C",[18],6.74%
same,"viability, T/C","second compound 1 µM, first compound 0.00316 µM",101%
same,"viability, T/C","second compound 1 µM, first compound 0.01 µM",78.2%
same,"viability, T/C",[19],40.7%
same,"viability, T/C",[20],17.3%
same,"viability, T/C",[21],9.53%
same,"viability, T/C",[22],8.73%
same,"viability, T/C","second compound 3.16 µM, first compound 0.00316 µM",86.1%
same,"viability, T/C","second compound 3.16 µM, first compound 0.01 µM",73.7%
same,"viability, T/C",[23],39.1%
same,"viability, T/C",[24],16.7%
same,"viability, T/C",[25],13.6%
same,"viability, T/C",[26],8.63%
same,"viability, T/C","second compound 10 µM, first compound 0.00316 µM",92.2%
same,"viability, T/C","second compound 10 µM, first compound 0.01 µM",65.1%
same,"viability, T/C",[27],31.2%
same,"viability, T/C",[28],17%
same,"viability, T/C",[29],15.2%
same,"viability, T/C",[30],9.83%
O=C(Nc1ccc(O)c(NS(=O)(=O)c2ccc(F)cc2)c1)c1ccc(-c2ccccc2)cc1,"viability, T/C",compound 0.0316 µM,93.2% and 100% and 110%
same,"viability, T/C",compound 0.1 µM,98.5% and 107% and 104%
same,"viability, T/C",compound 0.316 µM,89.5% and 95.1% and 93.5%
same,"viability, T/C",compound 1 µM,93.2% and 103% and 118%
same,"viability, T/C",compound 3.16 µM,99.4% and 81.3% and 100%
same,"viability, T/C",compound 10 µM,59.1% and 73.5% and 78.4%
same,IC50,curve of compound,> 10000 nM
COc1cc(C2c3cc4c(cc3C(OC3OC5COC(C)OC5C(O)C3O)C3COC(=O)C23)OCO4)cc(OC)c1O (stereo not drawn),"viability, T/C",compound 0.0316 µM,115% and 92.4% and 98.7%
same,"viability, T/C",compound 0.1 µM,102% and 84.8% and 107%
same,"viability, T/C",compound 0.316 µM,77% and 71.8% and 65.6%
same,"viability, T/C",compound 1 µM,51.8% and 43.3% and 50.5%
same,"viability, T/C",compound 3.16 µM,30.1% and 27.2% and 24.4%
same,"viability, T/C",compound 10 µM,23.1% and 24.8% and 25%
same,IC50,curve of compound,1030 nM and 758 nM and 789 nM
COc1cccc2c1C(=O)c1c(O)c3c(c(O)c1C2=O)CC(O)(C(=O)CO)CC3OC1CC(N)C(O)C(C)O1 (stereo not drawn) + Nc1ccc(C#CCN(C(=O)Cc2ncc(C(F)(F)F)cc2C(F)(F)F)c2ccc(F)cc2)nn1,IC50,[1],134 nM
same,IC50,[2],103 nM
same,IC50,[3],68.8 nM
same,IC50,[4],80.6 nM
same,IC50,[5],57.4 nM
same,IC50,[6],62.1 nM
same,"viability, T/C",[7],67.5%
same,"viability, T/C",[8],57.8%
same,"viability, T/C",[9],26.7%
same,"viability, T/C",[10],5.37%
same,"viability, T/C","second compound 0.0316 µM, first compound 3.16 µM",0.23%
same,"viability, T/C","second compound 0.0316 µM, first compound 10 µM",0.7%
same,"viability, T/C",[11],80.5%
same,"viability, T/C",[12],48.3%
same,"viability, T/C",[13],29.4%
same,"viability, T/C",[14],5.02%
same,"viability, T/C","second compound 0.1 µM, first compound 3.16 µM",0.21%
same,"viability, T/C","second compound 0.1 µM, first compound 10 µM",0.47%
same,"viability, T/C",[15],67.8%
same,"viability, T/C",[16],40%
same,"viability, T/C",[17],25%
same,"viability, T/C",[18],9.55%
same,"viability, T/C","second compound 0.316 µM, first compound 3.16 µM",0.15%
same,"viability, T/C","second compound 0.316 µM, first compound 10 µM",0.48%
same,"viability, T/C",[19],83.7%
same,"viability, T/C",[20],36.7%
same,"viability, T/C",[21],29.5%
same,"viability, T/C",[22],5.88%
same,"viability, T/C","second compound 1 µM, first compound 3.16 µM",0.44%
same,"viability, T/C","second compound 1 µM, first compound 10 µM",0.58%
same,"viability, T/C",[23],64.5%
same,"viability, T/C",[24],34.2%
same,"viability, T/C",[25],24.8%
same,"viability, T/C",[26],7.19%
same,"viability, T/C","second compound 3.16 µM, first compound 3.16 µM",0.42%
same,"viability, T/C","second compound 3.16 µM, first compound 10 µM",0.9%
same,"viability, T/C",[27],63.2%
same,"viability, T/C",[28],38.7%
same,"viability, T/C",[29],25.3%
same,"viability, T/C",[30],5.04%
same,"viability, T/C","second compound 10 µM, first compound 3.16 µM",0.39%
same,"viability, T/C","second compound 10 µM, first compound 10 µM",1.33%
